Columns and labels:
[1] = tested on: acute coronary insufficiency induced by vasopressine; assay: anti-angina activity: inhibition of vasopressine-induced acute coronary insufficiency (rise of T-wave on ECG), method of Papp and Szekeres; type: in vivo, rats belonging to the CFY strain; details: vasopressine 2 IU/kg i.v., pentobarbital anaesthetized CFY rats; papaverin = 1
[2] = tested on: haemodynamic and cardiovascular system; assay: general effects on the haemodynamic and cardiovascular system in pentobarbital anaesthetized dogs; type: in vivo; set-up: A. vertebralis flow, Changed value: unit not given here; details: 2 mg/kg i.v.
[3] = tested on: electric fibrillation threshold of the auricle and ventricle; assay: antiarrhythmial effect: change of electric fibrillation threshold in chloralose-urethane anaesthetized cats; type: in vivo; details: 2 mg/kg i.v.
Method: The antiarrhythmial effect is determined on chloralose-urethane anaesthetized cats [500/300 mg/kg i.p.] by measuring the changes of the electric fibrillation threshold of the auricle and ventricle respectively [method of Szekeres, Méhes and Papp: Brit. 0. Pharmacol. 17, 167 (1961) and that of Szekeres and Papp: Hdb. exp. Pharmacol. 16/3, 131 (1975) respectively]. The general effects exerted on the haemodynamic and cardiovascular system are tested on pentobarbital anaesthetized dogs (35 mg/kg i.v.).

acute toxicity on rats = details: rat, in vivo
Description: (§1) The acute toxicity of the compound of the Formula I is characterized by the data enumerated in Table 3.

acute toxicity on mice = details: mouse, in vivo, po
Description: as §1

## CCOc1ccc(CC2=NCCc3cc(OCC)c(OCC)cc32)cc1O [Formula I, 6,7-diethoxy-1-(4-ethoxy-3-hydroxy-benzyl)-3,4-dihydro-isoquinoline]
[1]
  anti-angina activity related to that of papaverin: 1.40
[2]
  A. carotis flow, Duration of effect: 7 min
  A. carotis flow, Percental difference: +27
  A. carotis resistance, Duration of effect: 7 min
  A. carotis resistance, Percental difference: -13
  A. femoralis flow, Duration of effect: 3 min
  A. femoralis flow, Percental difference: +44
  A. femoralis resistance, Duration of effect: 3 min
  A. femoralis resistance, Percental difference: -45
  A. vertebralis flow, Duration of effect: 2 min
  A. vertebralis flow, Percental difference: +51
  A. vertebralis resistance, Duration of effect: 2 min
  A. vertebralis resistance, Percental difference: -45
  Arterial blood pressure, Duration of effect: 5 min
  Arterial blood pressure, Percental difference: -22
  Contractibility of the left ventricle (dP/dt), Duration of effect: 2 min
  Contractibility of the left ventricle (dP/dt), Percental difference: -17
  Coronary flow, Duration of effect: 16 min
  Coronary flow, Percental difference: +36
  Coronary resistance, Duration of effect: 15 min
  Coronary resistance, Percental difference: -34
  Efficiency of cardial function, Duration of effect: 6 min
  Efficiency of cardial function, Percental difference: +45
  Frequence volume, Duration of effect: 35 min
  Frequence volume, Percental difference: +60
  Function of the left ventricle, Duration of effect: 7 min
  Function of the left ventricle, Percental difference: -20
  Heart frequence/min, Duration of effect: 31 min
  Heart frequence/min, Percental difference: -22
  Minute volume, Duration of effect: 4 min
  Minute volume, Percental difference: +11
  Myocardial oxygenization (O2 supply per O2 consumption), Duration of effect: 30 min
  Myocardial oxygenization (O2 supply per O2 consumption), Percental difference: +74
  Oxygen consumption of the left ventricle, Duration of effect: 22 min
  Oxygen consumption of the left ventricle, Percental difference: -29
  Total peripherial resistance, Duration of effect: 5 min
  Total peripherial resistance, Percental difference: -23
[2]; average ± S.E., basic value 0.11 ± 0.02
  Efficiency of cardial function, Changed value: 0.16 ± 0.02 mkg/ml/100 g
[2]; average ± S.E., basic value 1.16 ±0.06
  Coronary resistance, Changed value: 0.76 ± 0.06 Hgmm/ml/min/100 g
[2]; average ± S.E., basic value 1.24 ± 0.08
  Function of the left ventricle, Changed value: 0.99 ± 0.16 mkg/min
[2]; average ± S.E., basic value 1.70 ± 0.07
  Myocardial oxygenization (O2 supply per O2 consumption), Changed value: 2.95 ± 0.21
[2]; average ± S.E., basic value 2.33 ± 0.23
  A. carotis resistance, Changed value: 2.02 ± 0.32 Hgmm/ml/min
[2]; average ± S.E., basic value 3.28 ± 0.33
  A. vertebralis resistance, Changed value: 1.81 ± 0.17 Hgmm/ml/min
[2]; average ± S.E., basic value 4.84 ± 0.86
  A. femoralis resistance, Changed value: 2.66 ± 0.42 Hgmm/ml/min
[2]; average ± S.E., basic value 5.5 ± 0.3
  Frequence volume, Changed value: 8.8 ± 0.9 mL
[2]; average ± S.E., basic value 11.6 ± 0.9
  Oxygen consumption of the left ventricle, Changed value: 8.2 ± 1.2 ml/min/100 g
[2]; average ± S.E., basic value 34 ± 7
  A. femoralis flow, Changed value: 49 ± 10 mL/min
[2]; average ± S.E., basic value 43 ± 6
  A. vertebralis flow, Changed value: 65 ± 9
[2]; average ± S.E., basic value 70 ± 7
  A. carotis flow, Changed value: 89 ± 13 mL/min
[2]; average ± S.E., basic value 95 ± 5
  Coronary flow, Changed value: 129 ± 9 ml/min/100 g
[2]; average ± S.E., basic value 121 ± 5
  Arterial blood pressure, Changed value: 94 ± 4 Hgmm
[2]; average ± S.E., basic value 146 ± 8
  Heart frequence/min, Changed value: 114 ± 9 min⁻¹
[2]; average ± S.E., basic value 875 ± 42
  Minute volume, Changed value: 975 ± 34 mL/min
[2]; average ± S.E., basic value 5105 ± 434
  Contractibility of the left ventricle (dP/dt), Changed value: 4248 ± 865 Hgmm/sec
[2]; average ± S.E., basic value 10652 ± 991
  Total peripherial resistance, Changed value: 8185 ± 748 dyn. sec. cm^-5
[3]
  Arterial blood pressure, Duration of effect: 9 min
  Arterial blood pressure, Percental difference: -43
  Auricle fibrillation threshold, Duration of effect: 11 min
  Auricle fibrillation threshold, Percental difference: +58
  Ventricle fibrillation threshold, Duration of effect: 13 min
  Ventricle fibrillation threshold, Percental difference: +25
[3]; average ± S.E., basic value 0.73 ± 0.10
  Auricle fibrillation threshold, Changed value: 1.15 ± 0.11 mA
[3]; average ± S.E., basic value 2.07 ± 0.10
  Ventricle fibrillation threshold, Changed value: 2.58 ± 0.09 mA
[3]; average ± S.E., basic value 139 ± 5
  Arterial blood pressure, Changed value: 79 ± 8 Hgmm
Acute toxicity on rats; iv, i.v. on rats ♀
  LD50: 24.9 mg/kg
Acute toxicity on rats; iv, i.v. on rats ♂
  LD50: 23 mg/kg
Acute toxicity on rats; po, p.o. on rats ♀
  LD50: 625 mg/kg
Acute toxicity on rats; po, p.o. on rats ♂
  LD50: 493 mg/kg
Acute toxicity on mice; p.o. on mice ♀
  LD50: 165 mg/kg
Acute toxicity on mice; p.o. on mice ♂
  LD50: 269 mg/kg
